{"source": "patent US9029386B2", "about": "“Pyridine derivatives useful as kinase inhibitors” (YM Biosciences Australia Pty Ltd, priority 2006, dated 2015)", "format_in_all_cases": "biochemical", "key": {"Hck(h)": {"molecular_target": "T1, Hck(h) (Homo sapiens, UniProt P08631)", "T1 construct": "purchased Upstate Biotechnology (Dundee, UK), KinaseProfiler service", "T1 sequence (P08631 whole entry)": "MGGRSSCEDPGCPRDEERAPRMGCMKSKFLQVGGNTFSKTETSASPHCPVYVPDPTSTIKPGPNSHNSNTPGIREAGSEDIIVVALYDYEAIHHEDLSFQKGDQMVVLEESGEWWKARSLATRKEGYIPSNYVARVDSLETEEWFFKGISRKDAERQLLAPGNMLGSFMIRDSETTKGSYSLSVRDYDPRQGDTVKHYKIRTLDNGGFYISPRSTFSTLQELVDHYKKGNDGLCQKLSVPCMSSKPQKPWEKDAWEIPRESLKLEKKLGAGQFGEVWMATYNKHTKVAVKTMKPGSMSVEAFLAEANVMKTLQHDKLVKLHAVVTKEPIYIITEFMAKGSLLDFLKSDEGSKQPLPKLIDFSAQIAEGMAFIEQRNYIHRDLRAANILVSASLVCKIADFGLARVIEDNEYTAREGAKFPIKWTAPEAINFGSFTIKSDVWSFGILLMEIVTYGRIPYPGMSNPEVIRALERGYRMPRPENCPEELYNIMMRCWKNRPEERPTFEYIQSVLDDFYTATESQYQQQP", "assay": "KinaseProfiler assay (Upstate), Hck", "description": "(§1) Further enzyme assays were conducted at Upstate Biotechnology (Dundee, UK) in the KinaseProfiler™ Assay system.\n(§2) The general protocol is as follows. All kinases are pre-diluted to a 10× working concentration prior to addition into the assay. The composition of the dilution buffer for the kinases is 20 mM MOPS pH 7.0, 1 mM EDTA, 0.1% β-mercaptoethanol, 0.01% Brij-35, 5% glycerol, 1 mg/ml BSA. All substrates are dissolved and diluted to working stocks in de-ionised water.\n(§3) In a final reaction volume of 25 μl, Hck (h) (5-10 mU) is incubated with 8 mM MOPS pH 7.0, 0.2 mM EDTA, 250 μM […] (Cdc2 peptide), 10 mM MgAcetate and [γ-33P-ATP] (specific activity approx. 500 cpm/pmol, concentration as required). The reaction is initiated by the addition of the MgATP mix. After incubation for 40 minutes at room temperature, the reaction is stopped by the addition of 5 μl of a 3% phosphoric acid solution. 10 μl of the reaction is then spotted onto a P30 filtermat and washed three times for 5 minutes in 75 mM phosphoric acid and once in methanol prior to drying and scintillation counting."}, "Lck(h)": {"molecular_target": "T2, Lck(h) (Homo sapiens, UniProt P06239)", "T2 construct": "purchased Upstate Biotechnology (Dundee, UK), KinaseProfiler service", "T2 sequence (P06239 whole entry)": "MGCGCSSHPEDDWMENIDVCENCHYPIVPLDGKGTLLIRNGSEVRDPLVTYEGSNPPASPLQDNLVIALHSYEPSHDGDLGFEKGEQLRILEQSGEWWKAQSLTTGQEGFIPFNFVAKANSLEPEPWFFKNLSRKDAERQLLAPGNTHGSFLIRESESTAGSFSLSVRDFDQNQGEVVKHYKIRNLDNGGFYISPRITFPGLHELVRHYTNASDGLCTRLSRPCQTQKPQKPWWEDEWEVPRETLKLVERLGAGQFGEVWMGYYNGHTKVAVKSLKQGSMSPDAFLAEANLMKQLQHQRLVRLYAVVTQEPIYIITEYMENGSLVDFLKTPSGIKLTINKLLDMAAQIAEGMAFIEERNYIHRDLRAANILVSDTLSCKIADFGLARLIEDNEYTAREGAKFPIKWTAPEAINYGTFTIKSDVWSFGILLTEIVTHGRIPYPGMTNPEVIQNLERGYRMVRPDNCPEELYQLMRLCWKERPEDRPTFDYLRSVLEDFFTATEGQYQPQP", "assay": "KinaseProfiler assay (Upstate), Lck", "description": "as §1, §2\nas §3, with “Lck” for “Hck”, “50” for “8”, “Tris” for “MOPS”, “7.5, 0.1” for “7.0, 0.2”, “EGTA, 0.1 mM Na3VO4,” for “EDTA,”"}, "[1]": {"molecular_target": "T3, kinase domain of human c-kit (Homo sapiens, UniProt P10721)", "T3 construct": "from codon M552 to end; made in house; host or cells: Sf9 insect cells (baculovirus)", "T3 sequence (P10721 552-976 limits assumed)": "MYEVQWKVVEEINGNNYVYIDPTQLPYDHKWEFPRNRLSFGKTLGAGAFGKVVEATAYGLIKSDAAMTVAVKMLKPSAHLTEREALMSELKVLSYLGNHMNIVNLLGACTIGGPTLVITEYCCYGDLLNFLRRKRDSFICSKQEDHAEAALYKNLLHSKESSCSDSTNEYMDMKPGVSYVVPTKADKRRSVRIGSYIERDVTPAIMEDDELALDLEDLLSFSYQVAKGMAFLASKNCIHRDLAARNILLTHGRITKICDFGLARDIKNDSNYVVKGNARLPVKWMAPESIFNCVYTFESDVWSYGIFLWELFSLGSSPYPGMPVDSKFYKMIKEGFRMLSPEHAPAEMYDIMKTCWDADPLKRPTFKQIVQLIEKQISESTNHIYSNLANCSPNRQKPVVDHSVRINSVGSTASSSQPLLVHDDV", "assay": "Alphascreen protein tyrosine kinase assay, c-KIT", "description": "For screening purposes, compounds were diluted in 96 well plates at a concentration of 20 μM. Plates were warmed at 37° C. for 30 minutes before assay.\nThe kinase domain of human c-kit from codon M552 to end was cloned into the pDEST-20 expression vector (Invitrogen). The c-kit plasmid was then transformed into competent DH10Bac cells (Gibco), and the recombinant baculovirus produced prepared for transfection into Sf9 insect cells.\nBaculovirus preparations from each of construct were infected into five liters of SF9 cells (Invitrogen) grown in SF-900 medium (Invitrogen) to a cell density of approximately 1−2×10^6 cells/ml. […] Cells were harvested and lysed. Tyrosine kinase domains were purified by affinity chromatography on a glutathione-agarose column (Scientifix Pty. Ltd. catalog #: GSH-200).\nKinase assays were performed in 384 well Optiplates (Packard) using an Alphascreen Protein Tyrosine Kinase kit. […] Alphascreen phosphotyrosine acceptor beads followed by streptavidin donor beads were added under subdued light. The Alphascreen plates were read on a Packard Fusion Alpha. Inhibitors were added to the assays thirty minutes prior to the addition of ATP. Inhibitors were added in aqueous DMSO, with DMSO concentrations never exceeding 1%."}, "EphA8(h)": {"molecular_target": "T4, EphA8(h) (Homo sapiens, UniProt P29322)", "T4 construct": "purchased Upstate Biotechnology (Dundee, UK), KinaseProfiler service", "T4 sequence (P29322 28-1005)": "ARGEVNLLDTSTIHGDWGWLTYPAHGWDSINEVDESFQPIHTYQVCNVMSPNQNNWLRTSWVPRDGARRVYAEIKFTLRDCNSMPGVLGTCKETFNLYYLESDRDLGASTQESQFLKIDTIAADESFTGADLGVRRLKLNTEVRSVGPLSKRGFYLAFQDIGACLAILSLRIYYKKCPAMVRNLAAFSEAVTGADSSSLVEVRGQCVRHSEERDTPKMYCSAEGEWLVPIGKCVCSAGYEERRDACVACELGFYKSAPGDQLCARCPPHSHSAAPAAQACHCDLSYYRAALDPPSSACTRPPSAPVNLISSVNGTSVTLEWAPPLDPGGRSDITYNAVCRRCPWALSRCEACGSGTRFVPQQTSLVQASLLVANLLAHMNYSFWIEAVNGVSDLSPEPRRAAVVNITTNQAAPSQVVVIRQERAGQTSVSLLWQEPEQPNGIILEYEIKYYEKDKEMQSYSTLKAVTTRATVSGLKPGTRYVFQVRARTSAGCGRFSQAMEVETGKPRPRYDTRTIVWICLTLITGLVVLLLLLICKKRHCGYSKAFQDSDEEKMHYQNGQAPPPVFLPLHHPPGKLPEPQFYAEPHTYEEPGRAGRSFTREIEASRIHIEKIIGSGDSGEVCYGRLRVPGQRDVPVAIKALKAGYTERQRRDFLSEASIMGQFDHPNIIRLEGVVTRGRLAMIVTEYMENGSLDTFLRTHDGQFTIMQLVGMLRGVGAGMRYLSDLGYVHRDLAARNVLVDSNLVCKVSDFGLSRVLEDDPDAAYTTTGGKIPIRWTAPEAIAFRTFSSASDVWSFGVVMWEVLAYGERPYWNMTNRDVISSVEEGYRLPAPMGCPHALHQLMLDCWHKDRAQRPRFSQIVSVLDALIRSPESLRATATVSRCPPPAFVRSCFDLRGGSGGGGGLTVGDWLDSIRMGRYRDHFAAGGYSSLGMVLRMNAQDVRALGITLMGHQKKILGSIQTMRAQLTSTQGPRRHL", "assay": "KinaseProfiler assay (Upstate), EphA8", "description": "as §1, §2"}}}
{"smiles": "Cc1cccc(C(=O)Nc2cccc([C@H](C)Nc3cncc(-c4ccc(S(N)(=O)=O)cc4)n3)c2)c1", "note": "[Compound 77]", "values": [{"measurement": "inhibition at 0.1 µM", "setting": "Hck(h)", "result": 64, "unit": "%"}, {"measurement": "inhibition at 1 µM", "setting": "Hck(h)", "result": 95, "unit": "%"}, {"measurement": "inhibition at 0.1 µM", "setting": "Lck(h)", "result": 45, "unit": "%"}, {"measurement": "inhibition at 1 µM", "setting": "Lck(h)", "result": 84, "unit": "%"}, {"measurement": "IC50", "setting": "[1]", "result": "< 100", "unit": "nM"}, {"measurement": "inhibition at 0.1 µM", "setting": "EphA8(h)", "result": 66, "unit": "%"}, {"measurement": "inhibition at 1 µM", "setting": "EphA8(h)", "result": 99, "unit": "%"}]}
{"smiles": "C[C@H](Nc1cncc(Cl)n1)c1cccc(NC(=O)c2cccc(C(F)(F)F)c2)c1", "note": "[Compound 114, (S)—N-(3-(1-(6-chloropyrazin-2-ylamino)ethyl)phenyl)-3-(trifluoromethyl)benzamide]", "values": [{"measurement": "inhibition at 0.1 µM", "setting": "Hck(h)", "result": 74, "unit": "%"}, {"measurement": "inhibition at 1 µM", "setting": "Hck(h)", "result": 102, "unit": "%"}, {"measurement": "inhibition at 0.1 µM", "setting": "Lck(h)", "result": 53, "unit": "%"}, {"measurement": "inhibition at 1 µM", "setting": "Lck(h)", "result": 90, "unit": "%"}, {"measurement": "IC50", "setting": "[1]", "result": "< 1000", "unit": "nM"}, {"measurement": "inhibition at 0.1 µM", "setting": "EphA8(h)", "result": 67, "unit": "%"}, {"measurement": "inhibition at 1 µM", "setting": "EphA8(h)", "result": 97, "unit": "%"}]}
{"smiles": "Cc1cccc(C(=O)Nc2cccc([C@H](C)Nc3cncc(-c4ccc(N5CCN(C)CC5)cc4)n3)c2)c1", "note": "[Compound 129]", "values": [{"measurement": "inhibition at 0.1 µM", "setting": "Hck(h)", "result": 84, "unit": "%"}, {"measurement": "inhibition at 1 µM", "setting": "Hck(h)", "result": 99, "unit": "%"}, {"measurement": "inhibition at 0.1 µM", "setting": "Lck(h)", "result": 73, "unit": "%"}, {"measurement": "inhibition at 1 µM", "setting": "Lck(h)", "result": 96, "unit": "%"}, {"measurement": "IC50", "setting": "[1]", "result": "< 100", "unit": "nM"}, {"measurement": "inhibition at 0.1 µM", "setting": "EphA8(h)", "result": 42, "unit": "%"}, {"measurement": "inhibition at 1 µM", "setting": "EphA8(h)", "result": 90, "unit": "%"}]}
{"smiles": "Cc1cccc(C(=O)Nc2cccc([C@H](C)Nc3cncc(C(N)=O)n3)c2)c1", "note": "[Compound 133, (S)-6-(1-(3-(3-methylbenzamido)phenyl)ethylamino)pyrazine-2-carboxamide]", "values": [{"measurement": "inhibition at 0.1 µM", "setting": "Hck(h)", "result": 23, "unit": "%"}, {"measurement": "inhibition at 1 µM", "setting": "Hck(h)", "result": 84, "unit": "%"}, {"measurement": "inhibition at 0.1 µM", "setting": "Lck(h)", "result": 0, "unit": "%"}, {"measurement": "inhibition at 1 µM", "setting": "Lck(h)", "result": 16, "unit": "%"}, {"measurement": "IC50", "setting": "[1]", "result": "< 100", "unit": "nM"}, {"measurement": "inhibition at 0.1 µM", "setting": "EphA8(h)", "result": 7, "unit": "%"}, {"measurement": "inhibition at 1 µM", "setting": "EphA8(h)", "result": 64, "unit": "%"}]}
{"smiles": "Cc1cccc(C(=O)Nc2cccc([C@H](C)Nc3cncc(-n4ccnc4)n3)c2)c1", "note": "[Compound 143, (S)—N-(3-(1-(6-(1H-imidazol-1-yl)pyrazin-2-ylamino)ethyl)phenyl)-3-methylbenzamide]", "values": [{"measurement": "inhibition at 0.1 µM", "setting": "Hck(h)", "result": 55, "unit": "%"}, {"measurement": "inhibition at 1 µM", "setting": "Hck(h)", "result": 82, "unit": "%"}, {"measurement": "inhibition at 0.1 µM", "setting": "Lck(h)", "result": 24, "unit": "%"}, {"measurement": "inhibition at 1 µM", "setting": "Lck(h)", "result": 77, "unit": "%"}, {"measurement": "IC50", "setting": "[1]", "result": "< 100", "unit": "nM"}, {"measurement": "inhibition at 0.1 µM", "setting": "EphA8(h)", "result": 30, "unit": "%"}, {"measurement": "inhibition at 1 µM", "setting": "EphA8(h)", "result": 82, "unit": "%"}]}
{"smiles": "Cc1cccc(C(=O)Nc2cccc([C@H](C)Nc3cncc(-c4cccc(N5CCOCC5)c4)n3)c2)c1", "note": "[Compound 147]", "values": [{"measurement": "inhibition at 0.1 µM", "setting": "Hck(h)", "result": 90, "unit": "%"}, {"measurement": "inhibition at 1 µM", "setting": "Hck(h)", "result": 100, "unit": "%"}, {"measurement": "inhibition at 0.1 µM", "setting": "Lck(h)", "result": 50, "unit": "%"}, {"measurement": "inhibition at 1 µM", "setting": "Lck(h)", "result": 89, "unit": "%"}, {"measurement": "IC50", "setting": "[1]", "result": "< 100", "unit": "nM"}, {"measurement": "inhibition at 0.1 µM", "setting": "EphA8(h)", "result": 71, "unit": "%"}, {"measurement": "inhibition at 1 µM", "setting": "EphA8(h)", "result": 98, "unit": "%"}]}
{"smiles": "C[C@H](Nc1cncc(-c2ccc(N3CCN(C)CC3)cc2)n1)c1cccc(NC(=O)c2cccc(C(F)(F)F)c2)c1", "note": "[Compound 148]", "values": [{"measurement": "inhibition at 0.1 µM", "setting": "Hck(h)", "result": 96, "unit": "%"}, {"measurement": "inhibition at 1 µM", "setting": "Hck(h)", "result": 99, "unit": "%"}, {"measurement": "inhibition at 0.1 µM", "setting": "Lck(h)", "result": 95, "unit": "%"}, {"measurement": "inhibition at 1 µM", "setting": "Lck(h)", "result": 97, "unit": "%"}, {"measurement": "IC50", "setting": "[1]", "result": "< 100", "unit": "nM"}, {"measurement": "inhibition at 0.1 µM", "setting": "EphA8(h)", "result": 81, "unit": "%"}, {"measurement": "inhibition at 1 µM", "setting": "EphA8(h)", "result": 100, "unit": "%"}]}
{"smiles": "C[C@H](Nc1cncc(-c2cccc(N3CCOCC3)c2)n1)c1cccc(NC(=O)c2cccc(C(F)(F)F)c2)c1", "note": "[Compound 149]", "values": [{"measurement": "inhibition at 0.1 µM", "setting": "Hck(h)", "result": 94, "unit": "%"}, {"measurement": "inhibition at 1 µM", "setting": "Hck(h)", "result": 100, "unit": "%"}, {"measurement": "inhibition at 0.1 µM", "setting": "Lck(h)", "result": 68, "unit": "%"}, {"measurement": "inhibition at 1 µM", "setting": "Lck(h)", "result": 95, "unit": "%"}, {"measurement": "IC50", "setting": "[1]", "result": "< 1000", "unit": "nM"}, {"measurement": "inhibition at 0.1 µM", "setting": "EphA8(h)", "result": 81, "unit": "%"}, {"measurement": "inhibition at 1 µM", "setting": "EphA8(h)", "result": 103, "unit": "%"}]}
{"smiles": "Cc1cccc(C(=O)Nc2ccc(C)c([C@H](C)Nc3cncc(Cl)n3)c2)c1", "note": "[Compound 168]", "values": [{"measurement": "inhibition at 0.1 µM", "setting": "Hck(h)", "result": 96, "unit": "%"}, {"measurement": "inhibition at 1 µM", "setting": "Hck(h)", "result": 101, "unit": "%"}, {"measurement": "inhibition at 0.1 µM", "setting": "Lck(h)", "result": 85, "unit": "%"}, {"measurement": "inhibition at 1 µM", "setting": "Lck(h)", "result": 98, "unit": "%"}, {"measurement": "inhibition at 0.1 µM", "setting": "EphA8(h)", "result": 91, "unit": "%"}, {"measurement": "inhibition at 1 µM", "setting": "EphA8(h)", "result": 102, "unit": "%"}]}
